Columns and labels:
[1] = tested on: TxB2 production; assay: TxB2 generation in clotted whole blood after i.v. dosing (method of Patrono et al, RIA); format: in vivo, rabbits; settings: Oryctolagus cuniculus, iv; for inhibition at 0.1 mg/kg: 0.1 mg/kg i.v.; for inhibition at 0.3 mg/kg: 0.3 mg/kg i.v.
Method: The method of Patrono et al is adapted to study the generation of TxB2 is whole blood samples removed from animals prior to and following drug treatment. Briefly, blood samples are taken into glass tubes and allowed to clot at 37° C. Serum is separated by centrifugation and the samples stored at -40° C. until assayed for TxB2, when appropriate dilutions of ethanol deproteinised samples are analysed by RIA. This technique is used in experiments with the test compounds to determine intravenous potency in anaesthetised rabbits:
Male New Zealand white rabbits (2.6-5.6 kg) are anaesthetised with sodium pentobarbitone (30 mg/kg i.v.) followed by urethane (500 mg/kg i.p.). After cannulation of the trachea, a carotid artery is catheterised for collection of blood samples. The catheter is kept patent by slow infusion (0.2 ml/minute) of sterile saline. Control carotid arterial blood samples are taken 30 and 5 minutes prior to administration of the test compound or vehicle (0.9% w/v NaCl, 0.2 ml/kg) via a marginal ear vein. Three groups of rabbits are used. The first group receive 0.03 mg/kg of the test compound followed, one hour later, by 0.1 mg/kg. Similarly, the second group receive 0.3 mg/kg, followed by 1 mg/kg. The third group receive vehicle, followed one hour later by a further vehicle injection. […] At each time point, a 1 ml blood sample is taken into a glass test tube, without anticoagulant, for TxB2 determination. For the latter, the blood sample is allowed to clot during a two hour incubation at 37° C. (which preliminary experiments had shown to give maximum TxB2 production) and the serum obtained by centrifugation. Serum samples are then processed through the TxB2 RIA after deproteinisation with ethanol and dilution with Isogel Tris buffer.

[2] = rabbit, intravenous arachidonic acid; cited from earlier work
[3] = tested on: human blood platelet aggregation; settings: human blood platelets; cited from earlier work
[4] = tested on: aggregation of platelets; settings: rats in vivo; cited from earlier work
[5] = tested on: prostacyclin synthetase; settings: pre-incubation of the enzyme with the inhibitor; cited from earlier work

Compound | inhibition at 0.1 mg/kg ([1]; 2 min, 2 MIN post dose) [%] | inhibition at 0.1 mg/kg ([1]; 0.25 h, 15 MIN post dose) [%] | inhibition at 0.3 mg/kg ([1]; 0.25 h, 15 MIN post dose) [%] | inhibition at 0.3 mg/kg ([1]; 0.5 h, 30 MIN post dose) [%] | inhibition at 0.1 mg/kg ([1]; 0.75 h, 45 MIN post dose) [%] | inhibition at 0.1 mg/kg ([1]; 1.25 h, 75 MIN post dose) [%] | inhibition at 0.3 mg/kg ([1]; 2 min, 2 MIN post dose) [%] | inhibition at 0.1 mg/kg ([1]; 0.5 h, 30 MIN post dose) [%] | inhibition at 0.3 mg/kg ([1]; 0.75 h, 45 MIN post dose) [%] | inhibition at 0.3 mg/kg ([1]; 1.25 h, 75 MIN post dose) [%] | protection from the lethal effect of arachidonic acid injection [2] | inhibitory activity in vitro against a variety of aggregating agents [3] | prevention of platelet aggregation in extra corporeal loop of the abdominal aorta [4] | inhibition of PGI2 production [5]
Cc1c(Cn2ccnc2)sc2ccc(C(=O)O)cc12 | 100 | 98 | 94 | 95 | 100 | 98 | – | – | – | – | – | – | – | –
Cc1c(Cn2ccnc2)sc2cc(C(=O)O)ccc12 | – | 100 | 100 | – | – | – | 100 | 100 | 100 | 100 | – | – | – | –
O=C(O)c1ccc2oc(Cn3ccnc3)c(Br)c2c1 | – | 52 | 84 | – | – | – | 87 | 33 | 65 | 41 | – | – | – | –
O=C1C(CC[S+]([O-])c2ccccc2)C(=O)N(c2ccccc2)N1c1ccccc1 (centres unmarked) [sulphinpyrazone] | – | – | – | – | – | – | – | – | – | – | protect the rabbit from the lethal effect | show inhibitory activity | prevent the aggregation of platelets | –
Cc1c(Cc2cccnc2)sc2ccc(C(=O)O)cc12 | – | 96 | 99 | – | – | – | 98 | 85 | 97 | 83 | – | – | – | –
Cc1c(Sc2cccnc2)sc2ccc(C(=O)O)cc12 | – | 29 | 81 | – | – | – | 98 | 22 | 36 | 33 | – | – | – | –
O=C(O)c1ccc2sc(Cn3ccnc3)c(Cl)c2c1 | – | 99 | 100 | – | – | – | 99 | 96 | 100 | 99 | – | – | – | –
CC(=O)Oc1ccccc1C(=O)O [aspirin] | – | – | – | – | – | – | – | – | – | – | protect the rabbit from the lethal effect | show inhibitory activity | – | –
15-hydroperoxyarachidonic acid | – | – | – | – | – | – | – | – | – | – | – | – | – | completely inhibited
Cc1c(Cc2cccnc2)ccc2ccc(C(=O)O)cc12 | – | 95 | 98 | – | – | – | 99 | 92 | 95 | 97 | – | – | – | –
Cc1c(Cn2ccnc2)oc2ccc(C(=O)O)cc12 | – | 47 | 83 | – | – | – | 92 | 37 | 65 | 51 | – | – | – | –
CSc1c(Cn2ccnc2)sc2ccc(C(=O)O)cc12 | – | 93 | 98 | – | – | – | 99 | 95 | 97 | 95 | – | – | – | –
O=C(O)c1ccc2oc(Cn3ccnc3)c(Cl)c2c1 | – | 88 | 97 | – | – | – | 98 | 82 | 93 | 86 | – | – | – | –
O=C(O)c1ccc2sc(Cn3ccnc3)cc2c1 | – | – | 96 | 89 | – | – | – | – | – | – | – | – | – | –
Cc1c(Cn2ccnc2)n(C)c2ccc(C(=O)O)cc12 | – | 85 | 95 | – | – | – | 99 | 84 | 93 | 81 | – | – | – | –
Cc1c(Cc2cccnc2)sc2cc(C(=O)O)ccc12 | – | 76 | 91 | – | – | – | 90 | 46 | 71 | 52 | – | – | – | –

From patent publication US4496572A, “Benzo-fused thromboxane synthetase inhibitors” (Pfizer Inc., priority 1981, dated 1985)
